The source of these data is ChEMBL document CHEMBL1201862, “PubChem BioAssay data set” (2004).

Among the test systems are RPMI-8226; SK-MEL-5; HL-60; K562; UACC-257; Hs-578T; NCI-H226; SF-268; TK-10; BT-549; U-251; SNB-19; CCRF-CEM; COLO 205; HCT-116; NCI-H460; NCI-H23; SK-OV-3; MCF7; NCI-H522.
Assay in all cases: growth of human tumour cells (NCI), 48 h

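Values below derive from 48-hour exposures of cells grown in 96-well plates, with endpoints linearly interpolated between the two concentrations bracketing the appropriate inhibition level. Here, GI50 denotes the concentration required for 50% inhibition of growth.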 Activity calls are given as the source filed them. Rule as the data show it: active = GI50 up to about 1.1 µM and inactive = higher.

Take `CC1=C2CC3=C(C)C(=O)O[C@H]3C[C@@H](C)[C@@H]2CC1` [AMERICANOLIDE D]: the GI50 in the assay on RPMI-8226 was > 100 µM (inactive); in the assay on SK-MEL-5 it was 91.8 µM (inactive); in the assay on HL-60 it was 80.5 µM (inactive); in the assay with K562, 37.8 µM (inactive); in the assay with UACC-257 it was > 100 µM (inactive); in the assay with Hs-578T, > 100 µM (inactive). Also, the GI50 with NCI-H226, in the assay with SF-268, in the assay with TK-10, in the assay on BT-549, in the assay on U-251 and in the assay with SNB-19 was > 100 µM (inactive) each time. For the same compound, the GI50 in the assay on CCRF-CEM was 76.2 µM (inactive); with COLO 205, > 100 µM (inactive); in the assay on HCT-116, > 100 µM (inactive); in the assay on NCI-H460, > 100 µM (inactive); in the assay with NCI-H23, > 100 µM (inactive); in the assay with SK-OV-3 it was > 100 µM (inactive).

As to `O=S(=O)(Nc1nccs1)c1ccc(Nc2nc(-c3cccs3)nc3ccc(I)cc23)cc1`, the GI50 was 4.74 µM (inactive) with RPMI-8226; 8.18 µM (inactive) in the assay with SK-MEL-5; 42.3 µM (inactive) with HL-60; 14.8 µM (inactive) with K562; 8.28 µM (inactive) with MCF7; 4.49 µM (inactive) in the assay on UACC-257. Further, the GI50 in the assay with NCI-H226 was 35.1 µM (inactive); with SF-268 it was 12.6 µM (inactive); with TK-10, 9.51 µM (inactive); in the assay with BT-549, 11.9 µM (inactive); in the assay with U-251, 11.5 µM (inactive); in the assay on NCI-H522 it was 19.4 µM (inactive). The GI50 was 14.5 µM (inactive) in the assay on SNB-19; 3.48 µM (inactive) in the assay with CCRF-CEM; 6.34 µM (inactive) in the assay with COLO 205; 8.97 µM (inactive) in the assay with HCT-116; 9.73 µM (inactive) in the assay with NCI-H460; 37.4 µM (inactive) in the assay with NCI-H23. For the same compound, in the assay with SK-OV-3, the GI50 is 24.7 µM (inactive).

As to `CC(C)(C)OC(=O)C(C#N)C(=O)c1ccc(C(=O)O)[nH]1` (stereo not drawn), the GI50 in the assay with RPMI-8226 is 22.8 µM (inactive); with SK-MEL-5, 31 µM (inactive); with HL-60 it was 21.7 µM (inactive); in the assay with K562 it was 22.6 µM (inactive); with UACC-257, 30.2 µM (inactive); in the assay on NCI-H226, 38 µM (inactive). For the same compound, the GI50 in the assay on SF-268 is 47.4 µM (inactive); in the assay with TK-10, 29.7 µM (inactive); in the assay with BT-549, 48.5 µM (inactive); in the assay on U-251, 30.6 µM (inactive); in the assay on NCI-H522 it was 33.5 µM (inactive); with SNB-19, 41.5 µM (inactive). Moreover, the GI50 is 15 µM (inactive) with CCRF-CEM; 40.2 µM (inactive) in the assay on COLO 205; 38.4 µM (inactive) in the assay with HCT-116; 29.7 µM (inactive) with NCI-H460; 36.3 µM (inactive) in the assay on NCI-H23; 42 µM (inactive) in the assay on SK-OV-3.

As to `CC1(C)CNCC(C)(OCc2ccccc2)C(=O)NC(C)(C)CNCC(C)(OCc2ccccc2)C(=O)N1` (stereo not drawn), the GI50 in the assay with SK-MEL-5 is > 10 µM (inactive); with K562, > 10 µM (inactive); in the assay on MCF7, > 10 µM (inactive); in the assay on UACC-257 it was > 10 µM (inactive); in the assay on Hs-578T, 5.09 µM (inactive); in the assay with NCI-H226 it was > 10 µM (inactive). The GI50 in the assay on SF-268, with TK-10, in the assay with BT-549, in the assay on U-251, in the assay with SNB-19 and in the assay on CCRF-CEM was > 10 µM (inactive) each time. For the same compound, the GI50 with HCT-116 was 8.99 µM (inactive); in the assay with NCI-H460 it was > 10 µM (inactive); in the assay on NCI-H23 it was > 10 µM (inactive); in the assay with SK-OV-3, > 10 µM (inactive).

For `COc1cn2c(cc1=O)COc1ccc(-c3ccccc3)cc1-2`, the GI50 in the assay on RPMI-8226 was 42.9 µM (inactive); with SK-MEL-5, 23.5 µM (inactive); with HL-60 it was 41.3 µM (inactive); in the assay with K562 it was 89.3 µM (inactive); with MCF7 it was 21.1 µM (inactive); in the assay with UACC-257, 41 µM (inactive). In addition, the GI50 was 64.6 µM (inactive) with NCI-H226; 60.8 µM (inactive) in the assay with SF-268; 20 µM (inactive) with TK-10; 24.7 µM (inactive) with BT-549; 65.2 µM (inactive) with U-251; 27.9 µM (inactive) in the assay on NCI-H522. For the same compound, the GI50 with SNB-19 was 40 µM (inactive); in the assay on COLO 205 it was 56 µM (inactive); in the assay on HCT-116, 40 µM (inactive); with NCI-H460 it was 37.6 µM (inactive); with NCI-H23, 45.5 µM (inactive); in the assay with SK-OV-3 it was > 73.8 µM (inactive).

With `COc1c(OC)c(OC)c(-c2cc(=O)c3c(OC)c(OC)c(OC)c(OC)c3o2)c(OC)c1OC`, the GI50 is 60.8 µM (inactive) with RPMI-8226; 24.2 µM (inactive) in the assay on SK-MEL-5; 37.2 µM (inactive) in the assay with HL-60; 41.1 µM (inactive) in the assay with K562; 34.5 µM (inactive) in the assay on UACC-257; 52.5 µM (inactive) with Hs-578T. In addition, the GI50 with NCI-H226 is 54.2 µM (inactive); with SF-268, 69.5 µM (inactive); with TK-10, 29.3 µM (inactive); in the assay with BT-549 it was 34.5 µM (inactive); with U-251 it was 30.1 µM (inactive); in the assay on NCI-H522, 16.2 µM (inactive). In addition, the GI50 was 51.9 µM (inactive) in the assay with SNB-19; 34 µM (inactive) in the assay on CCRF-CEM; 37.4 µM (inactive) in the assay with COLO 205; 20.6 µM (inactive) with HCT-116; 31.3 µM (inactive) in the assay with NCI-H460; 22.2 µM (inactive) in the assay with NCI-H23. Besides, the GI50 in the assay with SK-OV-3 was 71.1 µM (inactive).

On to `CCOC(=O)/C(C(=O)c1ccc([N+](=O)[O-])cc1)=C(\NS(=O)(=O)c1cc(C)c(Cl)cc1[S-])[n+]1ccc(N(C)C)cc1`, for which the GI50 in the assay with RPMI-8226 is 28.1 µM (inactive); in the assay with SK-MEL-5, 42.8 µM (inactive); with HL-60, 30.1 µM (inactive); with K562 it was 32.1 µM (inactive); with MCF7 it was 40.3 µM (inactive); in the assay on UACC-257 it was 6.47 µM (inactive). Also, the GI50 was 51.8 µM (inactive) in the assay with NCI-H226; 37.1 µM (inactive) in the assay on SF-268; 18.7 µM (inactive) in the assay with TK-10; 35.5 µM (inactive) with BT-549; 41.6 µM (inactive) in the assay on U-251; 12.4 µM (inactive) in the assay on NCI-H522. The GI50 was 31.4 µM (inactive) in the assay on CCRF-CEM; 29.9 µM (inactive) in the assay on COLO 205; 19.2 µM (inactive) in the assay with HCT-116; 34.9 µM (inactive) with NCI-H460; 25.8 µM (inactive) in the assay on SK-OV-3.

Take `Oc1cccnc1CN1CCCCC1`: the GI50 in the assay with RPMI-8226, in the assay with SK-MEL-5, in the assay with K562, in the assay with MCF7, in the assay with UACC-257 and in the assay on Hs-578T was > 100 µM (inactive) each time. The GI50 with NCI-H226, in the assay on SF-268, in the assay with TK-10, in the assay on BT-549, in the assay with U-251 and in the assay with NCI-H522 was > 100 µM (inactive) each time. Also, the GI50 in the assay with SNB-19, in the assay with COLO 205, in the assay on HCT-116, in the assay on NCI-H460, in the assay on NCI-H23 and in the assay with SK-OV-3 was > 100 µM (inactive) each time.

For `CNC(=S)N/N=C(\C(=N/NC(=S)NC)c1ccccn1)c1ccccn1`, the GI50 with RPMI-8226 is 32.8 µM (inactive); in the assay with SK-MEL-5 it was 1.53 µM (inactive); with K562, 4.55 µM (inactive); in the assay on MCF7, < 0.0355 µM (active); with UACC-257 it was 1.82 µM (inactive); with Hs-578T, 5.38 µM (inactive). The GI50 was 2 µM (inactive) in the assay with NCI-H226; 1.19 µM (inactive) in the assay with SF-268; 4.04 µM (inactive) with TK-10; 14.4 µM (inactive) in the assay with BT-549; 0.289 µM (active) with U-251; 1.77 µM (inactive) in the assay with NCI-H522. Also, the GI50 is 10.3 µM (inactive) in the assay with SNB-19; 1.41 µM (inactive) in the assay with COLO 205; < 0.0306 µM (active) with HCT-116; 0.348 µM (active) in the assay with NCI-H460; 9.12 µM (inactive) in the assay with NCI-H23; 0.726 µM (active) in the assay on SK-OV-3.

For `Oc1cc(CN2COc3ccccc32)c(O)cc1CNC1CCCCC1`, the GI50 was 23.8 µM (inactive) with RPMI-8226; 19.3 µM (inactive) in the assay on SK-MEL-5; 21.9 µM (inactive) in the assay on K562; 20.4 µM (inactive) in the assay with MCF7; 15 µM (inactive) in the assay with UACC-257; 28.7 µM (inactive) with Hs-578T. Besides, the GI50 in the assay with SF-268 was 16.2 µM (inactive); in the assay on TK-10, 21.6 µM (inactive); with BT-549, 29.9 µM (inactive); with U-251 it was 17.7 µM (inactive); in the assay with NCI-H522, 14.1 µM (inactive); in the assay with SNB-19 it was > 100 µM (inactive). Besides, the GI50 was 4.53 µM (inactive) in the assay with CCRF-CEM; 17 µM (inactive) with COLO 205; 18.3 µM (inactive) in the assay with HCT-116; 17.1 µM (inactive) in the assay with NCI-H460; 22.3 µM (inactive) with NCI-H23; 64.9 µM (inactive) in the assay with SK-OV-3.

On to `COc1ccc(OC)c(/C=C/c2cnnc3ccccc23)c1`, for which the GI50 in the assay on RPMI-8226 is 3.16 µM (inactive); in the assay on SK-MEL-5, 3.61 µM (inactive); in the assay with HL-60, 2.79 µM (inactive); in the assay on K562, 2.33 µM (inactive); in the assay with MCF7, 1.85 µM (inactive); in the assay on UACC-257, 3.39 µM (inactive). Further, the GI50 is 1.43 µM (inactive) with Hs-578T; 5.73 µM (inactive) with NCI-H226; 4.79 µM (inactive) in the assay with SF-268; > 10 µM (inactive) in the assay on TK-10; 5.19 µM (inactive) in the assay on U-251; 3.66 µM (inactive) in the assay on NCI-H522. Besides, the GI50 was 6.46 µM (inactive) in the assay with SNB-19; 3.38 µM (inactive) in the assay with CCRF-CEM; 4.1 µM (inactive) in the assay on COLO 205; 3.4 µM (inactive) in the assay with HCT-116; 4.11 µM (inactive) in the assay with NCI-H460; 4.8 µM (inactive) in the assay on NCI-H23. The GI50 with SK-OV-3 is 5.5 µM (inactive).
